Experimental findings from ChEMBL document CHEMBL3860065, “Synthesis and biological evaluation of azole-diphenylpyrimidine derivatives (AzDPPYs) as potent T790M mutant form of epidermal growth factor receptor inhibitors” (Bioorg Med Chem, 2016) are described below.

A short description of data set [1]: Antiproliferative activity against NHBE cells after 48 hrs by MTT assay. It counts as ADME, cell-based. The following applies: Homo sapiens. (Tetrazolium assays rely on reduction of a dye to a coloured formazan, in cell work by metabolically active cells.)
The target of data set [2] is Epidermal growth factor receptor (Homo sapiens, UniProt P00533, L858R/T790M). In words: biochemical. The format is cell-based, Sf9.
Data set [3] can be described thus: Antiproliferative activity against wild type human A431 cells after 48 hrs by MTT assay. The format is functional, cell-based. The following applies: A-431, 48 h.
Data set [4] concerns the target Epidermal growth factor receptor (Homo sapiens, UniProt P00533). The format is ADME, cell-based, Sf9.
Description: Inhibition of human recombinant N-terminal GST-tagged wild type EGFR cytoplasmic domain (695 end residues) autophosphorylation expressed in baculovirus infected Sf9 insect cells by ADP-Glo luminescence assay
The conditions of data set [5]: human.
Data set [6] in a line: Antiproliferative activity against human A549 cells harboring K-ras mutation after 48 hrs by MTT assay. It counts as functional, cell-based. The following applies: A549, 48 h.
The next data set can be described thus: cells. It counts as functional, cell-based. Particulars: Homo sapiens, NCI-H1975, 48 h.
Data set [7] concerns NCI-H1975. In words: Induction of apoptosis in human NCI-H1975 cells harboring L858R/T790M double mutant assessed as viable cells at 500 nM after 48 hrs by annexin V-FITC/PI staining based flow cytometric analysis (reference value: 94.2%). The format is functional. Particulars: NCI-H1975, 48 h, read-out: Activity.
Data set [8] relates to Epidermal growth factor receptor (Homo sapiens), P00533 [L858R,T790M]. In words: Potency index, ratio of rociletinib IC50 to compound IC50 for human recombinant N-terminal GST-tagged EGFR T790M/L858R double mutant cytoplasmic domain (695 end residues) autophosphorylation expressed in baculovirus infected Sf9 insect cells.
Data set [9] relates to NCI-H1975. The data set is described as follows: Induction of apoptosis in human NCI-H1975 cells harboring L858R/T790M double mutant after 48 hrs by annexin V-FITC/PI staining based flow cytometric analysis. The format is functional, cell-based. (In general: In flow cytometry, cells or beads pass a laser one at a time.)
Data set [10] deals with NCI-H1975. In words: Induction of apoptosis in human NCI-H1975 cells harboring L858R/T790M double mutant assessed as viable cells at 200 nM after 48 hrs by annexin V-FITC/PI staining based flow cytometric analysis (reference value: 94.2%). It counts as functional. The following applies: NCI-H1975, 48 h, read-out: Activity.
Data set [11] deals with NCI-H1975. The data set is described as follows: Induction of apoptosis in human NCI-H1975 cells harboring L858R/T790M double mutant assessed as late apoptotic cells at 200 nM after 48 hrs by annexin V-FITC/PI staining based flow cytometric analysis (reference value: 3.4%). The format is functional.
The subject of data set [12] is NCI-H1975. In words: Induction of apoptosis in human NCI-H1975 cells harboring L858R/T790M double mutant assessed as late apoptotic cells at 500 nM after 48 hrs by annexin V-FITC/PI staining based flow cytometric analysis (reference value: 3.4%). It counts as functional.
The subject of data set [13] is NCI-H1975. The data set is described as follows: Induction of apoptosis in human NCI-H1975 cells harboring L858R/T790M double mutant assessed as early apoptotic cells at 500 nM after 48 hrs by annexin V-FITC/PI staining based flow cytometric analysis (reference value: 2%). It counts as functional.
Data set [14] deals with NCI-H1975. In words: Induction of apoptosis in human NCI-H1975 cells harboring L858R/T790M double mutant assessed as viable cells at 50 nM after 48 hrs by annexin V-FITC/PI staining based flow cytometric analysis (reference value: 94.2%). It counts as functional. The following applies: NCI-H1975, 48 h, read-out: Activity.
For data set [15], the system named is NCI-H1975. The data set is described as follows: Induction of apoptosis in human NCI-H1975 cells harboring L858R/T790M double mutant assessed as late apoptotic cells at 50 nM after 48 hrs by annexin V-FITC/PI staining based flow cytometric analysis (reference value: 3.4%). The format is functional.
The subject of data set [16] is NCI-H1975. The data set is described as follows: Induction of apoptosis in human NCI-H1975 cells harboring L858R/T790M double mutant assessed as necrotic cells at 50 nM after 48 hrs by annexin V-FITC/PI staining based flow cytometric analysis (reference value: 0.4%). It counts as functional.
Data set [17] deals with NCI-H1975. In words: Induction of apoptosis in human NCI-H1975 cells harboring L858R/T790M double mutant assessed as necrotic cells at 200 nM after 48 hrs by annexin V-FITC/PI staining based flow cytometric analysis (reference value: 0.4%). It counts as functional.
Data set [18] deals with NCI-H1975. In words: Induction of apoptosis in human NCI-H1975 cells harboring L858R/T790M double mutant assessed as necrotic cells at 500 nM after 48 hrs by annexin V-FITC/PI staining based flow cytometric analysis (reference value: 0.4%). It counts as functional.
Data set [19] deals with NCI-H1975. The data set is described as follows: Induction of apoptosis in human NCI-H1975 cells harboring L858R/T790M double mutant assessed as early apoptotic cells at 50 nM after 48 hrs by annexin V-FITC/PI staining based flow cytometric analysis (reference value: 2%). It counts as functional.
Data set [20] has as its system NCI-H1975. The data set is described as follows: Induction of apoptosis in human NCI-H1975 cells harboring L858R/T790M double mutant assessed as early apoptotic cells at 200 nM after 48 hrs by annexin V-FITC/PI staining based flow cytometric analysis (reference value: 2%). The format is functional.
Data set [21] relates to NCI-H1975. In words: Potency index, ratio of gefitinib IC50 to compound IC50 against human NCI-H1975 cells harboring L858R/T790M double mutant. It counts as functional.

pIC50: −log10 of the molar value. Bounds are passed on as bounds.

For orientation: pIC50 means −log10 of the IC50, conventionally taken in molar units. Turning to `C=CC(=O)Nc1cccc(Nc2nc(Nc3ccc(Cn4ccnc4)cc3OC)ncc2Cl)c1`, the pIC50 in [1] is below 4.40; in data set [2], 6.96; in [3], 5.17; in [4] it was 6.30; in data set [5], 8.33; in data set [6] it was 4.84. Also, in “cells”, the negative-log IC50 (pIC50) is 6.03.

For `C=CC(=O)Nc1cccc(Nc2nc(Nc3ccc(Cn4ccnc4)cc3)ncc2F)c1`, the pIC50 in data set [1] is below 4.40; in data set [2], 8.05; in data set [3], 6.82; in [4], 6.01; in data set [5], 6.96; in [6], 5.45. The molecule further gave a pIC50 in the data set “cells” of 5.76.

As to `C=CC(=O)Nc1cccc(Nc2nc(Nc3ccc(NC(=O)Cn4ccnc4)cc3)ncc2[N+](=O)[O-])c1`, the pIC50 in data set [1] was below 4.40; in [3], 4.79; in data set [5], below 8.07; in data set [6], below 4.40; in “cells”, 4.94.

Regarding `C=CC(=O)Nc1cccc(Nc2nc(Nc3ccc(Cn4ccnc4)cc3)ncc2Cl)c1`, in the data set with NCI-H1975 [7], the viability at 0.5 µM is 39.6%. Further, the pIC50 in data set [1] was below 4.40; in data set [2], 8.48; in data set [3] it was 6.13; in data set [4], 6.00; in data set [5], 6.52; in data set [6], 5.56. The molecule further had a pIC50 in the data set “cells” of 6.93. Also, the Ratio IC50 in data set [8] was 8; with NCI-H1975 [21] it was 10. Further, the Activity result was “Dose-dependent effect” in the data set with NCI-H1975 [9]; 4.2% in the data set on NCI-H1975 [11]; 3.7% with NCI-H1975 [12]; 56.7% with NCI-H1975 [13]; 2.6% in the data set with NCI-H1975 [15]; 0.1% with NCI-H1975 [16]. Further, the Activity is listed as 0.1% with NCI-H1975 [17], 0.1% in the data set with NCI-H1975 [18], 16.3% with NCI-H1975 [19] and 24.3% with NCI-H1975 [20]. The viability at 0.2 µM in the data set with NCI-H1975 [10] came out at 71.3%. Further, the viability at 0.05 µM with NCI-H1975 [14] was 81%.

Consider `C=CC(=O)Nc1cccc(Nc2nc(Nc3ccc(OCCn4ccnc4)cc3)ncc2F)c1`, for which the pIC50 in data set [1] was 4.40; in data set [2], 8.04; in [3], 5.61; in data set [4] it was below 6.00; in data set [5] it was below 6.96; in data set [6], 5.08. This molecule had a pIC50 in “cells” of 5.74.

For `C=CC(=O)Nc1cccc(Nc2nc(Nc3ccc(OCCn4cncn4)cc3)ncc2Cl)c1`, the negative-log IC50 (pIC50) was below 4.40 in [1]; 6.99 in [2]; 5.23 in [3]; below 6.00 in data set [4]; below 8.01 in data set [5]; 4.96 in data set [6]. In “cells”, this molecule had a negative logarithm of the IC50 (pIC50) of 5.63.

Consider `C=CC(=O)Nc1cccc(Nc2nc(Nc3ccc(OCCn4ccnc4)cc3)ncc2Cl)c1`, for which the pIC50 was 4.41 in data set [1]; 6.97 in [2]; 5.87 in data set [3]; below 6.00 in [4]; below 8.03 in [5]; 5.07 in data set [6]. This molecule showed a pIC50 in the data set “cells” of 6.41.

For the molecule `C=CC(=O)Nc1cccc(Nc2nc(Nc3ccc(-n4ccnc4)cc3)ncc2[N+](=O)[O-])c1`, the negative logarithm of the IC50 (pIC50) in data set [1] was below 4.40; in data set [2], 7.01; in [3] it was 4.91; in data set [4], below 6.00; in data set [5] it was below 7.99; in data set [6] it was below 4.40. Besides, in “cells”, the pIC50 was 4.90.

For the molecule `C=CC(=O)Nc1cccc(Nc2nc(Nc3ccc(N4CCN(C(C)=O)CC4)cc3OC)ncc2C(F)(F)F)c1` [ROCILETINIB], the pIC50 is below 4.40 in data set [1]; 5.89 in data set [3]; 7.67 in [5]; 5.19 in data set [6]; 6.86 in the data set “cells”.

As for `C=CC(=O)Nc1cccc(Nc2nc(Nc3ccc(OCCCn4ccnc4)cc3)ncc2[N+](=O)[O-])c1`, the pIC50 in data set [1] was 4.41; in [3], 5.19; in data set [5], below 7.61; in data set [6], 4.56; in the data set “cells”, 5.08.
